# Assay results reported in patent US10201624B2, “Triazine based radiopharmaceuticals and radioimaging agents” (Molecular Insight Pharmaceuticals, Inc., priority 2013, dated 2019).
# Assays:
# PSMA = target: T1, PSMA (Homo sapiens, UniProt Q04609); assay: ^68Ga-PSMA PET/CT imaging of a subject having prostate cancer; assay type: in vivo
# T1 construct: from tissue; host or cells: in vivo: prostate tissue, lymph node and bone lesions of a subject having prostate cancer
# Procedure: According to another embodiment of the invention, radiometal complexes of Formula I and Formula II compounds were used for imaging prostate cancer and accompanying metastasis in a subject. Briefly, ^68Ga was complexed to (2S)-2-(3-((1S)-1-carboxy-5-(11-(4-(4-(dimethylamino)-6-((4-((1,4,7,10-tetrakis(carboxymethyl)-1,4,7,10-tetraazacyclododecan-2-yl)methyl)phenyl)amino)-1,3,5-triazin-2-yl)piperazin-1-yl)undecanamido)pentyl)ureido)pentanedioic acid and the resultant complex was administered to a subject having prostate cancer. The subject was then imaged at 1 hour and 3 hours post administration of the inventive ^68Ga complex using, for example, a ^68Ga-PSMA PET/CT scanner. […] Overall, this imaging study supports the use of radiometal complexes of the inventive compounds as suitable agents for radioimaging of cancers, such as prostate cancer.
# LNCaP cell xenografts = assay: tissue distribution of ^177Lu-labeled compounds in mice bearing LNCaP xenografts; assay type: in vivo; settings: for concentration in kidneys compared with tumor: 4 hours post administration; for concentration in LNCap tumor: 24 hours and 96 hours post administration compared with 4 hours; for clearance from the kidneys: over a period of 96 hours
# Procedure: All animal studies were approved by the Institute for Animal Care and Use Committee in accordance with the guidelines set forth by the U.S. Public Health Service Policy on Humane Care and Use of Laboratory Animals. Mice were housed under standard conditions in approved facilities with 12 hour light/dark cycles and given food and water ad libitum. Male athymic NCr-nu/nu mice were purchased from Taconic. For inoculation in mice, LNCaP cells were resuspended at 10^7 cells/ml in a 1:1 mixture of cell culture medium:Matrigel (BD Biosciences). Each mouse was injected in the right flank with 0.25 ml of the cell suspension. Mice were used for tissue distribution studies when the tumors reached approximately 100-400 mm^3.
# A quantitative analysis of the tissue distribution of ^177Lu-labeled compounds was performed in separate groups of male NCr-nu/nu mice bearing LNCaP cell xenografts. The compounds were administered via the tail vein as a bolus injection (approximately 10 μCi/mouse) in a constant volume of 0.05 mL. The animals (n=5/time point) were euthanized by asphyxiation with carbon dioxide at the indicated time points after injection. Tissues, for example, blood, heart, lungs, liver, spleen, kidneys, stomach, large and small intestines (with contents), testes, skeletal muscle, bone, brain, adipose, and tumor were dissected, excised, weighed wet, and counted in an automated γ-counter. Tissue time-radioactivity levels were expressed as percent injected dose per gram of tissue (% ID/g).
# LNCaP xenografts = assay: in vivo efficacy: inhibition of LNCaP tumor growth; design: species or system mice; settings: 450 μCi per mouse, intravenous
# Procedure: FIG. 5 illustrates the in vivo efficacy of an exemplary lutetium complex of the invention to inhibit the growth of LNCaP tumors in mice. Arrest of tumor growth was determined by administering 450 μCi of the lutetium complex of (2S)-2-(3-((1S)-1-caroxy-5-(11-(4-(4-(dimethylamino)-6-((4-((1,4,7,10-tetrakis(carboxymethyl)-1,4,7,10-tetraazacyclododecan-2-yl)methyl)phenyl)amino)-1,3,5-triazin-2-yl)piperazin-1-yl)undecanamido)pentyl)ureido)pentanedioic acid to each mouse in the study group. Mice in the control group were administered saline. Tumor volumes in the test and control group of mice were measured twice weekly.
# All animal studies were approved by the Institute for Animal Care and Use Committee in accordance with the guidelines set forth by the U.S. Public Health Service Policy on Humane Care and Use of Laboratory Animals. Mice were housed under standard conditions in approved facilities with 12 hour light/dark cycles and given food and water ad libitum. Male athymic NCr-nu/nu mice were purchased from Taconic. […]
# Mice bearing LNCaP xenografts having an average volume of ˜100-500 mm^3, were randomly assigned to a control group or a treatment group (n=10 mice per group). […] Tumor dimensions were measured twice weekly with digital calipers and tumor volumes were calculated using the formula ([…]Π×width^2×length)/6. […]
# [1] = ^177Lu complex, LNCap xenograft mice, tail vein bolus
# [2] = extended study, 3 weeks post administration
# [3] = extended study, between 24 hours to 96 hours
# T1 sequence (Q04609 whole entry): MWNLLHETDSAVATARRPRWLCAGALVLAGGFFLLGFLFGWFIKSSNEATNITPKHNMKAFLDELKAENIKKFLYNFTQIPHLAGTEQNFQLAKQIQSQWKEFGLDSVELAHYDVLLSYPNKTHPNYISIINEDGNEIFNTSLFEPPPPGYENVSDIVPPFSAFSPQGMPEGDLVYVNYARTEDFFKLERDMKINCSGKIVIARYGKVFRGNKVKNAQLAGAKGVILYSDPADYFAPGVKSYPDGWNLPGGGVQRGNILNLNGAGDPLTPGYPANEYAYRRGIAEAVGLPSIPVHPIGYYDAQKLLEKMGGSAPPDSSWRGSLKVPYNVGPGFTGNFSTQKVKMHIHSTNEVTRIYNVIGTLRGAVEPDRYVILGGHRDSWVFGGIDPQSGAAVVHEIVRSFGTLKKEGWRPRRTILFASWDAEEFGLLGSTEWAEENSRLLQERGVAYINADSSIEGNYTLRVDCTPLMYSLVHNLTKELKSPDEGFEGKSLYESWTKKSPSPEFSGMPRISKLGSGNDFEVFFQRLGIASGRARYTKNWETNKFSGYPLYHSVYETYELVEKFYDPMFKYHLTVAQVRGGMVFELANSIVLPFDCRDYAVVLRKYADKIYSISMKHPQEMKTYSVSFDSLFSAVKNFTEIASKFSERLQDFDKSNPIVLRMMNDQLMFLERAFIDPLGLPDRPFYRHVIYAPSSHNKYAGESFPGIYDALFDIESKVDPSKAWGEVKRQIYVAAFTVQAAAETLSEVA
molecule,measurement,setting,value
"^68Ga complex of (2S)-2-(3-((1S)-1-carboxy-5-(11-(4-(4-(dimethylamino)-6-((4-((1,4,7,10-tetrakis(carboxymethyl)-1,4,7,10-tetraazacyclododecan-2-yl)methyl)phenyl)amino)-1,3,5-triazin-2-yl)piperazin-1-yl)undecanamido)pentyl)ureido)pentanedioic acid [Example 17]",tissue accumulation in radiographic image,PSMA; FIG. 6,"accumulates in the lacrimal and salivary glands, kidney, liver, and urinary bladder"
same,PSMA specific lesions in radiographic image,PSMA; imaged at 1 hour and 3 hours post administration,"detected in the lymph nodes and bone, in addition to the prostate tissue itself"
same,imaging agent visible in bladder,PSMA; visible at hour 1,cleared by the 3-hour scan
"O=C(O)CCOCCOCCNc1nc(Nc2ccc(CC3CN(CC(=O)O)CCN(CC(=O)O)CCN(CC(=O)O)CCN3CC(=O)O)cc2)nc(N2CCN(CCCCCCCCCCC(=O)NCCCC[C@H](NC(=O)N[C@@H](CCC(=O)O)C(=O)O)C(=O)O)CC2)n1 (stereo partly drawn) [complex (A), ^177Lu-complex of (2S)-2-(3-(1-carboxy-5-(11-(4-(4-((2-(2-(2-carboxyethoxy)ethoxy)ethyl)amino)-6-((4-((1,4,7,10-tetrakis(carboxymethyl)-1,4,7,10-tetraazacyclododecan-2-yl)methyl)phenyl)amino)-1,3,5-triazin-2-yl)piperazin-1-yl)undecanamido)pentyl)ureido)pentanedioic acid, metal not drawn]",concentration in kidneys compared with tumor,LNCaP cell xenografts,greater in kidneys than in tumor
same,concentration in LNCap tumor,LNCaP cell xenografts,remained unchanged
same,concentration in kidneys and tumor compared with other tissues,LNCaP cell xenografts; [1],concentrate in kidneys and tumor to a greater extent than other tissues
same,clearance from the kidneys,LNCaP cell xenografts,rapidly cleared from the kidneys
"CN(C)c1nc(Nc2ccc(CC3CN(CC(=O)O)CCN(CC(=O)O)CCN(CC(=O)O)CCN3CC(=O)O)cc2)nc(N2CCN(CCCCCCCCCCC(=O)NCCCC[C@H](NC(=O)N[C@@H](CCC(=O)O)C(=O)O)C(=O)O)CC2)n1 (stereo partly drawn) [complex (D), ^177Lu-complex of (2S)-2-(3-((1S)-1-carboxy-5-(11-(4-(4-(dimethylamino)-6-((4-((1,4,7,10-tetrakis(carboxymethyl)-1,4,7,10-tetraazacyclododecan-2-yl)methyl)phenyl)amino)-1,3,5-triazin-2-yl)piperazin-1-yl)undecanamido)pentyl)ureido)pentanedioic acid, metal not drawn]",concentration in kidneys and tumor compared with other tissues,"LNCaP cell xenografts; extended biodistribution study, shorter time intervals post administration",concentrates to a greater extent in kidneys and tumor than other tissues
same,intracellular concentration in LNCaP tumor cells,"LNCaP cell xenografts; extended study, 1 week post administration",no appreciable change
same,intrarenal concentration,"LNCaP cell xenografts; extended study, 1 week post administration compared with within eight hours",significantly lower
same,decrease in tumor concentration compared with decrease in intrarenal concentration,LNCaP cell xenografts; [2],less compared to the decrease in the intrarenal concentration
same,intratumoral concentration,LNCaP cell xenografts; [2],decrease
same,concentration in kidney,LNCaP cell xenografts; [3],decreases
same,concentration in tumor,LNCaP cell xenografts; [3],no observable change
same,concentration in kidneys and tumor as a function of time,"LNCaP cell xenografts; extended study, first eight hours post administration",gradual increase
same,LNCaP tumor volumes compared with volume at the start of the study,LNCaP xenografts,decrease to values lower than the tumor volume at the start of the study
same,tumor volumes compared with saline control group,LNCaP xenografts; measured twice weekly,significantly lower
"^177Lu-complex of (21S,25S)-8,15,23-trioxo-1-(4-((1,4,7,10-tetrakis(carboxymethyl)-1,4,7,10-tetraazacyclododecan-2-yl)methyl)phenylamino)-1 thioxo-2,7,16,22,24-pentaazaheptacosane-21,25,27-tricarboxylic acid [complex (C), reference compound]",concentration in kidneys compared with tumor,LNCaP cell xenografts,greater in kidneys than in tumor
same,concentration in LNCap tumor,LNCaP cell xenografts,decreases
same,concentration in kidneys and tumor compared with other tissues,LNCaP cell xenografts; [1],concentrate in kidneys and tumor to a greater extent than other tissues
"O=C(O)CC[C@H](NC(=O)N[C@@H](CCCCNC(=O)CCCCCCCCCCN1CCN(c2nc(Nc3ccc(CC4CN(CC(=O)O)CCN(CC(=O)O)CCN(CC(=O)O)CCN4CC(=O)O)cc3)nc(N3CCCCC3)n2)CC1)C(=O)O)C(=O)O (stereo partly drawn) [complex (B), ^177Lu-complex of (2S)-2-(3-((1S)-1-carboxy-5-(11-(4-(4-(piperidin-1-yl)-6-((4-((1,4,7,10-tetrakis(carboxymethyl)-1,4,7,10-tetraazacyclododecan-2-yl)methyl)phenyl)amino)-1,3,5-triazin-2-yl)piperazin-1-yl)undecanamido)pentyl)ureido)pentanedioic acid, metal not drawn]",concentration in kidneys compared with tumor,LNCaP cell xenografts,greater in kidneys than in tumor
same,concentration in LNCap tumor,LNCaP cell xenografts,remained unchanged
same,concentration in kidneys and tumor compared with other tissues,LNCaP cell xenografts; [1],concentrate in kidneys and tumor to a greater extent than other tissues
same,clearance from the kidneys,LNCaP cell xenografts,rapidly cleared from the kidneys
